Source: patent publication US9132103B2, “Disinfecting agent comprising eugenol, terpineol and thymol” (Conopco, Inc., priority 2009, dated 2015)

Test system: E. coli ATCC 10536
Assay: Bacterial kill after 15 seconds of contact (viable E. coli count by neutralization, serial dilution and plating)
Type: cell-based
Settings: log10 of viable E. coli remaining after 15 seconds of contact; about 10^7 cells; water carrier; Table 2
Experimental: About 10^7 bacterial cells (E. coli ATCC 10536) were taken in a test tube and contacted with various compositions for a period of 15 seconds. Bacteria were taken out after 15 seconds of contact and presence of viable cells was determined by neutralization of the antimicrobial, serial dilution and plating on agar plates. The data is presented in Table-1 as log (Viable E. Coli) which is the log10 of the number of viable E. coli remaining after 15 seconds of contact. Thus if 10^4 remained, log (Viable E. coli) is 4.
The data in Table-1 is an average result of four experiments.
Various compositions as shown in Table-2 were prepared using the same procedure as used for examples 1 to 3 and the antibacterial efficacy was evaluated using the same procedure as used to evaluate Examples 1 to 3. The data on antibacterial efficacy is represented in Table-2.
Compositions as summarized in Table-3 were prepared using a similar procedure as used for Examples 1 to 3 and the antibacterial efficacy was evaluated using a procedure similar to that used for Examples 1 to 3.
The various compositions were diluted with water in a ratio of composition:water of 1:400 and then tested for antibacterial efficacy. The procedure used was similar to that used for Examples 1 to 3.
Soap bar compositions were prepared as per conventional procedure for preparing milled and plodded soap bars. […]

| Compound | Log (Viable E. coli) |
| --- | --- |
| Cc1ccc(C(C)C)c(O)c1 [Example 6, Thymol] | 6.5 |
| Terpineol [Example 7] | 6.5 |
